{"source": "patent US6812256B2", "about": "“Polysubstituted indan-1-ol systems for the prophylaxis or treatment of obesity” (Aventis Pharma Deutschland GmbH, priority 2001, dated 2004)", "tested_on": "female NMRI mice", "test": "Anorectic action: cumulative milk consumption after 24 h removal of feed", "assay_type": "in vivo", "details": "30 mg/kg i.p.", "method": "The anorectic action was tested on female NMRI mice. After removal of feed for 24 hours, the preparation to be tested was administered intraperitoneally (i.p.) or by gavage (po). The animals were housed singly and, with free access to drinking water, they were offered evaporated milk 30 minutes after administration of the preparation. The consumption of evaporated milk was determined and the general behavior of the animals was monitored every half an hour for 7 hours. The measured milk consumption was compared to that of vehicle-treated control animals.", "data": [{"smiles": "CC1(O)c2ccc(Cl)cc2CC1(F)S(C)(=O)=O", "note": "(centres unmarked) [Example 1, 5-Chloro-2-fluoro-2-methanesulfonyl-1-methyl-indan-1-ol]", "values": [{"measurement": "Reduction in cumulative milk consumption as % of the control", "setting": "compared with control animals", "result": 25, "unit": "%"}, {"measurement": "cumulative milk consumption by treated animals", "setting": "feed removed for 24 h, evaporated milk offered 30 min after administration, monitored for 7 hours", "result": "4/2.88 ml"}]}]}
